These results are taken from US6262116A, “Transcription therapy for cancers” (Sloan-Kettering Institute for Cancer Research, priority 1998, dated 2001).

The subject of data set [1] is acute promyelocytic leukemia. The data set is classed as in vivo, human. The note with it: Jan. `98 (first line). The source says: The patient used for clinical study is a person who was diagnosed with acute promyelocytic leukemia in 1994.
Data set [2] relates to PLZF-retinoic acid receptor-α bone marrow leukaemic cells. In words: Proliferation (3H-thymidine incorporation) of PLZF-RARα bone marrow leukaemic cells. Format: cell-based, mouse. The procedure: (§1) Myeloid differentiation was evaluated by performing the nitroblue tetrazolium (NBT) assay, and cell proliferation by measuring DNA synthesis quantitating incorporation of ^3 H-thymidine.
(§2) Differentiation was evaluated performing the nitroblue tetrazolium (NBT) assay and morphological differential count^32. Proliferation of bone marrow cells was evaluated by measuring DNA synthesis quantitating incorporation of ^3 H-thymidine (Amersham). Bone marrow cells were plated at a density of 2×10^6 cells/ml and were pulsed with ^3 H-thymidine at a final concentration of […].

Data set [3] concerns PLZF-retinoic acid receptor-α. In words: 3XRARE-Luc reporter transfection assay in 293T cells, PLZF-RARα. The data set is classed as cell-based, human. The procedure: (§3) The experiment was performed in medium reconstituted with serum not depleted of endogenous retinoids. Luciferase activity was measured in a scintillation counter and normalized with the internal β-galactosidase standard. […] Note that in panels A and B luciferase activity is expressed by different scales.
(§4) Luciferase activity was normalized with the internal β-galactosidase standard. Values represent the averages of two independent transfections.
(§5) 293T cells and KG1 cells were transfected by calcium phosphate precipitation, and by electroporation as already described^25, and luciferase activity of each sample was normalized against internal control β-galactosidase activity^25.
(§6) Nuclear receptor co-repressors form complexes with histone deacetylases (HDAC1 or 2), resulting in nucleosome assembly and transcriptional repression^15.

For data set [4], the system named is PLZF-retinoic acid receptor-α bone marrow leukaemic cells. In words: Myeloid differentiation (NBT assay) of PLZF-RARα bone marrow leukaemic cells. The data set is classed as cell-based, mouse. The note with it: Trichostatin A alone (5 ng/ml). The procedure: as §1, §2
Data set [5] relates to PML-retinoic acid receptor-α. The experiment in a line: 3XRARE-Luc reporter transfection assay in 293T cells, PML-RARα. The data set is classed as cell-based, human. The procedure: as §3, §4, §5, §6
Data set [6] deals with NB4 cells. In words: NB4 cell apoptosis (Annexin V flow cytometry). The data set is classed as cell-based, human. As to the method: (§7) NB4 cells, a line that stably carries the PML/RAR-α fusion protein of acute promyelocytic leukemia^71, were maintained in RPMI1640 medium, which was supplemented with 10% fetal bovine serum and 1% of penicillin-streptomycin, at 37° C. in 5% CO2 atmosphere. Cultures were established at an initial density of 10^5 cells/ml in the presence or absence of drugs at various concentrations. Cellular proliferation was measured by assessment of ^3 H-thymidine incorporation. Aliquots (180 μl) from each culture were placed into 96-well plates in triplicate after 20 hrs of incubation, and 0.5 μCi of ^3 H-thymidine in 20 μl of medium was added to each well. […] The proportion of cells undergoing apoptosis was determined by Annexin V staining^72. Aliquots (1 ml) from each culture were harvested after 48 hrs incubation and the cells were stained with fluorescein isothiocyanate (FITC)-conjugated Annexin V and propidium iodide, according to the manufacturer's instructions (PharMingen, San Diego, Calif.). Annexin V and propidium iodide positivity were analyzed by flow cytometry (Becton-Dickinson, Mountainview, Calif.). Cell viability was measured after 4 days of incubation by using trypan blue exclusion. Cellular differentiation was evaluated at day 4 of incubation using both an assay for nitroblue tetrazolium (NBT) reduction and expression of CD11b (a cell surface differentiation antigen)^73. Briefly, 10^6 cells were harvested and incubated with 0.1% NBT solution in the presence of 12-o-tetradecanoylphorbol 13-acetate (TPA) (0.1 μg/ml) for 1 hr. The pellet of the mixture was then resuspended with 0.04 M HCl/10% SDS and kept at room temperature for 24 hrs. […] For CD11b expression, 10^6 cells were incubated with FITC-conjugated CD11b monoclonal antibody (PharMingen). A FITC-conjugated isotype was used as background control. Expression of CD11b, including percentage of positive cells and the fluorescence intensity, was determined by using flow cytometry (Becton Dickinson).

For data set [7], the system named is myelodysplasia, myeloid leukemia and solid tumors. As to conditions: human, in vivo; cited from earlier work.
Data set [8] concerns NB4 cells. In words: NB4 cell viability (trypan blue exclusion). Format: cell-based, human. As to conditions: phenylbutyrate 10 mM, 4 days of culture. The procedure: NB4 cells, a line that stably carries the PML/RAR-α fusion protein of acute promyelocytic leukemia^71, were maintained in RPMI1640 medium, which was supplemented with 10% fetal bovine serum and 1% of penicillin-streptomycin, at 37° C. in 5% CO2 atmosphere. Cultures were established at an initial density of 10^5 cells/ml in the presence or absence of drugs at various concentrations. Cellular proliferation was measured by assessment of ^3 H-thymidine incorporation. Aliquots (180 μl) from each culture were placed into 96-well plates in triplicate after 20 hrs of incubation, and 0.5 μCi of ^3 H-thymidine in 20 μl of medium was added to each well. […] The proportion of cells undergoing apoptosis was determined by Annexin V staining^72. […] Annexin V and propidium iodide positivity were analyzed by flow cytometry (Becton-Dickinson, Mountainview, Calif.). Cell viability was measured after 4 days of incubation by using trypan blue exclusion. Cellular differentiation was evaluated at day 4 of incubation using both an assay for nitroblue tetrazolium (NBT) reduction and expression of CD11b (a cell surface differentiation antigen)^73. […] The optical density was measured at 540 nm. […] Expression of CD11b, including percentage of positive cells and the fluorescence intensity, was determined by using flow cytometry (Becton Dickinson).

Data set [9] in a line: Plasma concentrations of phenylbutyrate during clinical infusion. The data set is classed as in vivo, human.
From the text: During the post-remission treatment course, blood specimens collected on heparin were serially obtained before and 2, 4, and 6 hrs following a 2-hour infusion of phenylbutyrate for determination of histone acetylation levels in leukocytes.
The subject of data set [10] is acetylated histones H3 and H4. The experiment in a line: Histone hyperacetylation in patient's blood and bone marrow mononuclear cells (Western, immunofluorescence). Format: in vivo, human. As to the method:
Hyperacetylation was detected using antiacetylated H3 or H4 antibodies reacting with histones that were acid-extracted from nucleated cells in peripheral blood before (lane 1) and 2, 4 and 6 hours (lanes 2 to 4) after initiation of the phenylbutyrate infusion, and from bone marrow before (lane 5) and after (lane 6) completion of the infusion. The parallel gel stained with Coomassie blue is a loading control.
Mononuclear cells from the patient's blood and bone marrow were isolated by density centrifugation and were applied on slides by cytospin. The slides were fixed in 95% ethanol/5% acetic acid for 1 min, permeabilized and blocked in 10% goat serum/1% BSA/0.3% Triton X-100/PBS for 40 min. The slides were then incubated with anti-acetylated histone H4 antibody (Upstate Biotechnology, Inc., Lake Placid, N.Y.) for 1 hr. A Texas-red-conjugated IgG was used as a secondary antibody to reveal the positivity; staining with 4',6-diamidino-2-phenylindole (DAPI) was used to reveal nuclei.
Nuclei from separated blood and bone marrow mononuclear cells were isolated by lysis in buffer containing 10 mM Tris-HCl pH 6.5, 50 mM sodium bisulfite, 1% Triton X-100, 10 mM MgCl2, 8.6% sucrose and Dounce homogenization. Histones were isolated by acid extraction^74. Isolated histones ([…]) were then separated on 15% SDS-PAGE minigels (Bio-Rad, Hercules, Calif.) and transferred to nitrocellulose (Schleicher and Schuell, Keene, N.H.). Hyperacetylated histones were detected by antibodies that specifically recognize the hyperacetylated forms of histone H4 and histone H3 (Upstate Biotechnology) and were visualized by chemiluminescence (Pierce, Rockford, Ill.). As a control for the amount of protein loading, parallel gels were stained with Coomassie blue.

For data set [11], the system named is NB4 cells. The experiment in a line: NB4 cell proliferation (3H-thymidine incorporation). The data set is classed as cell-based, human. As to the method: as §7
Data set [12] concerns NB4 cells. In words: NB4 cell differentiation (CD11b expression and NBT reduction). The data set is classed as cell-based, human. As to the method:
as §7

Where [13] appears, read: Trichostatin A alone (not shown).
Where [14] appears, read: retinoic acid 10^-6 M with Trichostatin A 150 nM, 36 hours.

On to `CC(=O)O[C@H]1C(=O)[C@@]2(C)[C@H]([C@H](OC(=O)c3ccccc3)[C@]3(O)C[C@H](OC(=O)[C@H](O)[C@@H](NC(=O)c4ccccc4)c4ccccc4)C(C)=C1C3(C)C)[C@]1(OC(C)=O)CO[C@@H]1C[C@@H]2O` [Paclitaxel], for which the Response entry in data set [1] was “Progression”.

On to `CC(/C=C/C(=O)NO)=C\[C@@H](C)C(=O)c1ccc(N(C)C)cc1` [Trichostatin A], for which the growth inhibition result in [2] (Trichostatin A alone (5 ng/ml)) is recorded as “marked growth inhibitory effect”. Also, the transcriptional effect result in data set [3] (setting [13]) and in data set [5] (setting [13]) was “negligible transcriptional effects” each time. In addition, the “transactivation of reporter / reversal of transcriptional repression” value in [3] (setting [14]) and in [5] (setting [14]) was “reverted the transcriptional repression” each time. The differentiation result in data set [4] was “negligible differentiating effect”.

Regarding `O=C(O)CCCc1ccccc1` [phenylbutyrate, sodium phenylbutyrate], the apoptosis result in the data set on NB4 cells [6] (phenylbutyrate 0.08 mM) is listed as “no effect”; with NB4 cells [6] (phenylbutyrate 0.4 mM) it was “no effects on other parameters”; with NB4 cells [6] (phenylbutyrate 10 mM), “induced marked apoptosis”. This molecule also showed an induction of apoptosis with NB4 cells [6] (phenylbutyrate 2 mM, 2 days) of 15%. In addition, the clinical usefulness entry in [7] is listed as “has not been clinically useful”. The viable cells entry in the data set with NB4 cells [8] is listed as “no viable cells remained after 4 days of culture”. Besides, in [9] (10 mM), the “clinical achievability of concentration” value is listed as “not clinically achievable”. In addition, the Cmax in [9] (human, plasma, 150 mg/kg, patient, intravenous infusion, read-out: peak plasma levels transiently attained after completing the drug infusion) was around 2000 µM. In data set [10] (6 hours after starting the infusion), the “magnitude of hyperacetylation (Western analysis)” value is listed as “greatly diminished”. Besides, the “acetylated histone H4 (immunofluorescence staining of nuclei)” value in data set [10] (peripheral blood cells, 6 hours after starting the infusion (approximately 4 hours after discontinuing the drug)) was “hyperacetylation was still visually evident”. In addition, the “percentage of positive staining cells and staining intensity, acetylated histone H4” value in [10] (peripheral blood mononuclear cells 0, 2, 4, 6 hours after infusion) is given as “progressively increases from baseline up to 6-hours”. Also, in data set [10] (peripheral blood mononuclear cells, two hours after beginning the phenylbutyrate infusion), the “levels of acetylated H3 and H4 (Western blot)” value is reported as “markedly increased”. Also, the proliferation result in the data set on NB4 cells [11] (phenylbutyrate 0.08 mM) is listed as “no effect”; in the data set with NB4 cells [11] (phenylbutyrate 0.4 mM), “slight growth inhibition”; in the data set on NB4 cells [11] (phenylbutyrate 2 mM), “induced growth inhibition”; in the data set with NB4 cells [11] (phenylbutyrate 10 mM), “completely inhibited proliferation”. For the same molecule, the results for the differentiation entry in the data set on NB4 cells [12] (phenylbutyrate 0.08 mM), in the data set with NB4 cells [12] (phenylbutyrate 0.4 mM) and in the data set with NB4 cells [12] (phenylbutyrate 2 mM) were “no effect”, “no effects on other parameters” and “little effect upon differentiation”, respectively.

As for `CC1=C(/C=C/C(C)=C/C=C/C(C)=C/C(=O)O)C(C)(C)CCC1` [retinoic acid, all-trans-retinoic acid], the growth inhibition entry in data set [2] (retinoic acid 10^-7 M and 10^-6 M) is “little if no effects”; in data set [2] (retinoic acid 10^-7 M and 10^-6 M, listed as Retinoic acid), “minimal”.
